Measured values reported in patent US8252946B2, “Crystalline forms of tigecycline hydrochloride” (Sandoz AG, priority 2007, dated 2012).

Legend:
Assay type in all cases: physicochemical
[1] = Thermal stability: 4-Epi-Tigecycline and total impurities at ambient conditions and after 7 days at 80° C.
Description: Tigecycline must be available in a physical stable form as well, in order to avoid degradation and as a consequence the building of undesired byproducts.

[2] = Water solubility testing (saturated solution in distilled water, UV-vis at 347 nm)
Protocol: The finished dosage form contains lyophilized amorphous Tigecycline respectively Tigecycline hydrochloride. Before lyophilizing, Tigecycline respectively Tigecycline hydrochloride is dissolved in water, thus water solubility is an important factor to consider.
A UV-vis Lambda 35 spectrophotometer (Perkin-Elmer) was used (λ=347 nm, 1.0 cm quartz cells). Perkin Elmer® UV Win Lab-5.1 software was used.
A saturated solution of Tigecycline respectively Tigecycline hydrochloride in distilled water was prepared and the suspension was stirred at room temperature for 30 minutes with a stirring speed of 1000 U/min. The suspension was filtrated through a 0.45 μm filter. Finally the resulting solution was diluted 10000-fold and measured against water at a wavelength of 347 nm.

[3] = Water content on storage at defined relative humidity at 25° C.
Protocol: The water content of crystalline form A of Tigecycline hydrochloride may vary from about 0-6.0% e.g. the water content is 0% when stored at 1.7% relative humidity at 25° C., 2.7% when stored at 42.7% relative humidity at 25° C. and 5.8% when stored at 80% relative humidity at 25° C.

[4] = Conversion into other crystalline or amorphous forms on storing at elevated temperature; conditions: after storing for 7 days at 80° C.
[5] = Storage stability of lyophilized amorphous Tigecycline hydrochloride at room temperature; conditions: stored for about 9 months at room temperature
Protocol: Moreover crystalline forms A and B of Tigecycline hydrochloride of the present invention show better physical stability than amorphous Tigecycline hydrochloride. For example amorphous Tigecycline hydrochloride was prepared by lyophilization and stored for about 9 months at room temperature. […] Therefore amorphous Tigecycline hydrochloride is not suitable as an intermediate for the formulation of an anti-infective medicament, due to the low stability.

[6] = after storing for 7 days at 80° C.

## CN(C)c1cc(NC(=O)CNC(C)(C)C)c(O)c2c1C[C@H]1C[C@H]3[C@H](N(C)C)C(O)=C(C(N)=O)C(=O)[C@@]3(O)C(O)=C1C2=O.Cl [Form A, Tigecycline hydrochloride]
[1]; [6]
  change in 4-Epi-Tigecycline content (in words): practically did not change
  change in total impurities (in words): low
[1]; listed as A, hydrochloride
  4-EPI-TIGECYCLINE AT AMBIENT CONDITIONS: 0.84
  TOTAL IMPURITIES AT AMBIENT CONDITIONS: 1.07
[2]
  water solubility compared with the other crystalline forms (in words): highest water solubility
[2]; water, saturated solution in distilled water, stirred 30 minutes at room temperature, filtered 0.45 μm, read-out: Water solubility, CONCENTRATION
  solubility thermodynamic at 30 min: 503 mg/mL
[3]; may vary, depending on relative humidity
  water content, span of variation: 0-6.0%
[3]; stored at 1.7% relative humidity at 25° C.
  water content: 0%
[3]; stored at 42.7% relative humidity at 25° C.
  water content: 2.7%
[3]; stored at 80% relative humidity at 25° C.
  water content: 5.8%
[4]
  conversion into other crystalline or amorphous forms: did not convert

## CN(C)c1cc(NC(=O)CNC(C)(C)C)c(O)c2c1C[C@H]1C[C@H]3[C@H](N(C)C)C(O)=C(C(N)=O)C(=O)[C@@]3(O)C(O)=C1C2=O.Cl [Form B, Tigecycline hydrochloride]
[1]; listed as B, hydrochloride
  4-EPI-TIGECYCLINE AT AMBIENT CONDITIONS: 0.93
  TOTAL IMPURITIES AT AMBIENT CONDITIONS: 1.91
[2]; saturated solution in distilled water, stirred 30 minutes at room temperature, filtered 0.45 μm, hydrochloride
  Water solubility, CONCENTRATION: 323 mg/mL

## CN(C)c1cc(NC(=O)CNC(C)(C)C)c(O)c2c1C[C@H]1C[C@H]3[C@H](N(C)C)C(O)=C(C(N)=O)C(=O)[C@@]3(O)C(O)=C1C2=O [WO 2006/128150 I, (4S,4aS,5aR,12aS)-4,7-Bis(dimethylamino)-9-[[[(1,1-dimethylethyl)amino]acetyl]amino]-1,4,4a,5,5a,6,11,12a-octahydro-3,10,12,12a-tetrahydroxy-1,11-dioxo-2-naphthacenecarboxamide]
[1]; [6]
  change in total impurities (in words): tremendous increase
[1]
  4-EPI-TIGECYCLINE AT AMBIENT CONDITIONS: 0.36
  TOTAL IMPURITIES AT AMBIENT CONDITIONS: 0.75

## CN(C)c1cc(NC(=O)CNC(C)(C)C)c(O)c2c1C[C@H]1C[C@H]3[C@H](N(C)C)C(O)=C(C(N)=O)C(=O)[C@@]3(O)C(O)=C1C2=O [WO 2006/128150 II, (4S,4aS,5aR,12aS)-4,7-Bis(dimethylamino)-9-[[[(1,1-dimethylethyl)amino]acetyl]amino]-1,4,4a,5,5a,6,11,12a-octahydro-3,10,12,12a-tetrahydroxy-1,11-dioxo-2-naphthacenecarboxamide]
[1]; [6]
  change in total impurities (in words): tremendous increase
[1]
  4-EPI-TIGECYCLINE AT AMBIENT CONDITIONS: 1.04
  TOTAL IMPURITIES AT AMBIENT CONDITIONS: 1.60

## CN(C)c1cc(NC(=O)CNC(C)(C)C)c(O)c2c1C[C@H]1C[C@H]3[C@H](N(C)C)C(O)=C(C(N)=O)C(=O)[C@@]3(O)C(O)=C1C2=O [WO 2006/128150 III, (4S,4aS,5aR,12aS)-4,7-Bis(dimethylamino)-9-[[[(1,1-dimethylethyl)amino]acetyl]amino]-1,4,4a,5,5a,6,11,12a-octahydro-3,10,12,12a-tetrahydroxy-1,11-dioxo-2-naphthacenecarboxamide]
[1]; after storing 7 days at 80° C.
  4-EPI-TIGECYCLINE 7 DAYS AT 80° C.: 2.18
  TOTAL IMPURITIES 7 DAYS AT 80° C.: 4.46%
[1]
  4-EPI-TIGECYCLINE AT AMBIENT CONDITIONS: 0.16
  TOTAL IMPURITIES AT AMBIENT CONDITIONS: 0.16%
[2]; saturated solution in distilled water, stirred 30 minutes at room temperature, filtered 0.45 μm
  Water solubility, CONCENTRATION: 174 mg/mL

## CN(C)c1cc(NC(=O)CNC(C)(C)C)c(O)c2c1C[C@H]1C[C@H]3[C@H](N(C)C)C(O)=C(C(N)=O)C(=O)[C@@]3(O)C(O)=C1C2=O [WO 2006/128150 IV, (4S,4aS,5aR,12aS)-4,7-Bis(dimethylamino)-9-[[[(1,1-dimethylethyl)amino]acetyl]amino]-1,4,4a,5,5a,6,11,12a-octahydro-3,10,12,12a-tetrahydroxy-1,11-dioxo-2-naphthacenecarboxamide]
[1]
  4-EPI-TIGECYCLINE AT AMBIENT CONDITIONS: 0.23
  TOTAL IMPURITIES AT AMBIENT CONDITIONS: 0.40

## CN(C)c1cc(NC(=O)CNC(C)(C)C)c(O)c2c1C[C@H]1C[C@H]3[C@H](N(C)C)C(O)=C(C(N)=O)C(=O)[C@@]3(O)C(O)=C1C2=O [WO 2006/128150 V, (4S,4aS,5aR,12aS)-4,7-Bis(dimethylamino)-9-[[[(1,1-dimethylethyl)amino]acetyl]amino]-1,4,4a,5,5a,6,11,12a-octahydro-3,10,12,12a-tetrahydroxy-1,11-dioxo-2-naphthacenecarboxamide]
[1]
  4-EPI-TIGECYCLINE AT AMBIENT CONDITIONS: <0.05
  TOTAL IMPURITIES AT AMBIENT CONDITIONS: 0.22

## CN(C)c1cc(NC(=O)CNC(C)(C)C)c(O)c2c1C[C@H]1C[C@H]3[C@H](N(C)C)C(O)=C(C(N)=O)C(=O)[C@@]3(O)C(O)=C1C2=O [WO 2007/127292 I, (4S,4aS,5aR,12aS)-4,7-Bis(dimethylamino)-9-[[[(1,1-dimethylethyl)amino]acetyl]amino]-1,4,4a,5,5a,6,11,12a-octahydro-3,10,12,12a-tetrahydroxy-1,11-dioxo-2-naphthacenecarboxamide]
[1]; listed as WO2007/127792 I
  4-EPI-TIGECYCLINE AT AMBIENT CONDITIONS: 0.34
  TOTAL IMPURITIES AT AMBIENT CONDITIONS: 0.59

## CN(C)c1cc(NC(=O)CNC(C)(C)C)c(O)c2c1C[C@H]1C[C@H]3[C@H](N(C)C)C(O)=C(C(N)=O)C(=O)[C@@]3(O)C(O)=C1C2=O [WO 2007/127292 II, (4S,4aS,5aR,12aS)-4,7-Bis(dimethylamino)-9-[[[(1,1-dimethylethyl)amino]acetyl]amino]-1,4,4a,5,5a,6,11,12a-octahydro-3,10,12,12a-tetrahydroxy-1,11-dioxo-2-naphthacenecarboxamide]
[1]; listed as WO2007/127792 II
  4-EPI-TIGECYCLINE AT AMBIENT CONDITIONS: 0.17
  TOTAL IMPURITIES AT AMBIENT CONDITIONS: 0.24

## CN(C)c1cc(NC(=O)CNC(C)(C)C)c(O)c2c1C[C@H]1C[C@H]3[C@H](N(C)C)C(O)=C(C(N)=O)C(=O)[C@@]3(O)C(O)=C1C2=O.Cl [amorphous Tigecycline hydrochloride, Tigecycline hydrochloride]
[5]
  4-Epi-Tigecycline content: 19.56%
  total impurities: 21.55%
